Experimental data reported in ChEMBL document CHEMBL3992546, “Discovery and optimization of benzimidazole derivatives as a novel chemotype of farnesoid X receptor (FXR) antagonists” (Bioorg Med Chem, 2017).
Calls of active or inactive are those of the source. The rule behind the calls is not given here.

Experiments:
Bile acid receptor = molecular target: T1, Bile acid receptor (Homo sapiens, UniProt Q96RI1); assay: Inhibition of GW4064-induced fluorecein-labeled SRC2-2 coactivator recruitment in GST-tagged FXR LBD (unknown origin) by Lanthascreen TR-FRET assay
T1 sequence (Q96RI1 whole entry): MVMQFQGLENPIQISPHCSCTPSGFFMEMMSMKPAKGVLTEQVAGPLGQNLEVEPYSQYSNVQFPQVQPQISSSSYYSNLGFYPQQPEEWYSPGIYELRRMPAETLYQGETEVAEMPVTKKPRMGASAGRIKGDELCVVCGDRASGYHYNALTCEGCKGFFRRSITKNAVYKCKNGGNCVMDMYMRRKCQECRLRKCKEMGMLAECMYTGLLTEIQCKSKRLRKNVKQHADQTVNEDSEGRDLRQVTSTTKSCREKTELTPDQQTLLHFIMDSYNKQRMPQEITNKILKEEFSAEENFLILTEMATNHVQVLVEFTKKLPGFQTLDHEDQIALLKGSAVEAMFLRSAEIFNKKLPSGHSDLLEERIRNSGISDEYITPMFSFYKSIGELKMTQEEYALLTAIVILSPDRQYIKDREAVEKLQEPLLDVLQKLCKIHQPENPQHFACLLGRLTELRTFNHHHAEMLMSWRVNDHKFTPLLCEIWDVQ

[1] = Antagonist activity at human FXRalpha expressed in human Hep3B cells assessed as inhibition of CDCA-induced FXR response element driven luciferase activity after 24 hrs; type: cell-based
[2] = molecular target: T2, Bile acid receptor (Homo sapiens) (UniProt Q96RI1); assay: Antagonist activity at FXR in human Hep3B cells assessed as inhibition of CDCA-induced decrease in CYP7A1 expression level at 0.2 to 5 uM after 24 hrs by RT-PCR method; type: cell-based
T2 sequence (whole entry): T1 sequence (Q96RI1 whole entry)

[3] = molecular target: T2, Bile acid receptor (Homo sapiens); assay: Antagonist activity at FXR in human Hep3B cells assessed as inhibition of CDCA-induced SHP expression level at 0.2 to 5 uM after 24 hrs by RT-PCR method; type: cell-based
[4] = molecular target: T3, Retinoic acid receptor RXR-alpha (Homo sapiens) (UniProt P19793); assay: Antagonist activity at human RXRalpha expressed in human Hep3B cells assessed as inhibition of 9-cis-retinoic acid-induced RXR response element driven luciferase activity at 100 uM after 24 hrs; type: cell-based
T3 sequence (whole entry): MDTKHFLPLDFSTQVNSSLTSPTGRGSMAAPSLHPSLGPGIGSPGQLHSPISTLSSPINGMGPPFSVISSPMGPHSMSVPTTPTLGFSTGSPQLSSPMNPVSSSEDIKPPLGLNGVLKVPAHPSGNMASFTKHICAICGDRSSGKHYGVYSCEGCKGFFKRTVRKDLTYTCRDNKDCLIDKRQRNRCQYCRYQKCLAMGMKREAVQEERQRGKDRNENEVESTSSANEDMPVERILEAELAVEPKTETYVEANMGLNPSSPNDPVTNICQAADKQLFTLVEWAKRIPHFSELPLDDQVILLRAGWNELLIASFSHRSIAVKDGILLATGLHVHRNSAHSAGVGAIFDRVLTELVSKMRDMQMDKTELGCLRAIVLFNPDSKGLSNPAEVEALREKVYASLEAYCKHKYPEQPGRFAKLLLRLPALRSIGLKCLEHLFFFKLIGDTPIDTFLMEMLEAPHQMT

[5] = Homo sapiens, Hep3B, 24 h, read-out: IC50

Row | Structure (SMILES) | IC50 (Bile acid receptor) [µM] | IC50 [1, 5] [µM] | other results
1 | C[C@@H](c1nc2ccc(C(=O)O)cc2n1C)N1C(=O)CN(c2ccc(Oc3ccccc3)cc2)C1=O | 10.4 | > 300 | 
2 | Cn1c([C@H](Cc2ccccc2)N2C(=O)CN(c3ccc(Oc4ccccc4)cc3)C2=O)nc2ccc(C(=O)O)cc21 | 35.2 | 6.4 | 
3 | CC(C)C[C@@H](c1nc2ccc(C(=O)O)cc2n1C)N1C(=O)CN(c2ccc(Oc3ccccc3)cc2)C1=O | 43.4 | 5.6 | 
4 | CC[C@@H](c1nc2ccc(C(=O)O)cc2n1C)N1C(=O)CN(c2ccc(Oc3ccccc3)cc2)C1=O | 209 | 24.8 | 
5 | CC[C@H](C)[C@@H](c1nc2ccc(C(=O)O)cc2n1C)N1C(=O)CN(c2ccc(Oc3ccccc3)cc2)C1=O | 102 | 3.8 | 
6 | CC(C)C[C@@H](c1nc2ccc(C(=O)O)cc2n1C)N1CC(=O)N(c2ccc(Oc3ccccc3)cc2)CC1=O | 417 |  | IC50 [1]: Not Active
7 | CC(C)C[C@@H](c1nc2ccc(C(=O)O)cc2n1C)N1CCN(c2ccc(Oc3ccccc3)cc2)C1=O | 28.5 | 5.7 | 
8 | Cc1ccc2nc([C@H](CC(C)C)N3C(=O)CN(c4ccc(Oc5ccccc5)cc4)C3=O)n(C)c2c1 | 65.6 | 0.175 | 
9 | COc1ccc(Oc2ccc(N3CC(=O)N([C@@H](CC(C)C)c4nc5ccc(C(=O)O)cc5n4C)C3=O)cc2)cc1 | 75.3 | 4.5 | 
10 | CC(C)[C@@H](c1nc2ccc(C(=O)O)cc2n1C)N1C(=O)CN(c2ccc(Oc3ccccc3)cc2)C1=O | 174 | 10.1 | 
11 | Cn1c([C@@H](Cc2ccccc2)N2C(=O)CN(c3ccc(Oc4ccccc4)cc3)C2=O)nc2ccc(C(=O)O)cc21 | 87.5 | 13.9 | 
12 | CC(C)C[C@@H](c1nc2ccc(C(=O)O)cc2n1C)N1C(=O)CN(c2ccc(OC3CCCCC3)cc2)C1=O | 126 | 55.2 | 
13 | Cc1ccc2nc([C@H](CC3CCCCC3)N3C(=O)CN(c4ccc(Oc5ccccc5)cc4)C3=O)n(C)c2c1 | 126 | 0.0012 | inhibition [2]: Active; inhibition [3]: Active; inhibition [4]: inactive
14 | Cn1c([C@H](CC2CCCCC2)N2C(=O)CN(c3ccc(Oc4ccccc4)cc3)C2=O)nc2ccc(C(=O)O)cc21 | 24.4 | 2 | 
15 | CC(C)C[C@@H](c1nc2cc(C(=O)O)ccc2n1C)N1C(=O)CN(c2ccc(Oc3ccccc3)cc2)C1=O | 113 | 18.2 | 
16 | CC(C)C[C@@H](c1nc2ccc(C(=O)O)cc2n1C)N1C(=O)CN(c2cccc(Oc3ccccc3)c2)C1=O | 18.2 | 9.9 | 
17 | CC(C)C[C@H](c1nc2ccc(C(=O)O)cc2n1C)N1C(=O)CN(c2ccc(Oc3ccccc3)cc2)C1=O | 6.6 to 66.6 | 33.6 | 
18 | CC(C)C[C@@H](c1nc2ccc(C(=O)O)cc2n1C)N1C(=O)CN(c2ccc(F)cc2)C1=O | 399 |  | IC50 [1]: Not Active
19 | CC(C)C[C@@H](c1nc2ccc(C(=O)O)cc2n1C)N1C(=O)N(c2ccc(Oc3ccccc3)cc2)C(C)(C)C1=O | 105 | 24.4 | 
20 | CC(C)C[C@@H](c1nc2ccc(C(=O)O)cc2n1C)N1C(=O)CN(c2ccc(Oc3ccc(Cl)cc3)cc2)C1=O | 2.56 | 4.1 | 
21 | C/C=C1\C(=O)C[C@H]2[C@@H]3CCC4=CC(=O)CC[C@]4(C)[C@H]3CC[C@]12C [GUGGULSTERONE] |  | 2 | 
22 | CC(C)C[C@@H](c1nc2ccc(C(=O)O)cc2n1C)N1C(=O)CN(c2ccc(-c3ccccc3)cc2)C1=O | 23.1 | 28.1 | 
23 | Cn1c([C@@H](N2C(=O)CN(c3ccc(Oc4ccccc4)cc3)C2=O)C(C)(C)C)nc2ccc(C(=O)O)cc21 | 77.1 | 6.3 | 
24 | CC(C)[C@H](c1nc2ccc(C(=O)O)cc2n1C)N1C(=O)CN(c2ccc(Oc3ccccc3)cc2)C1=O | 118 | 100 | 
